Values of other authors as cited in patent publication US20060234348A1, “Method of production of RNA polymerase protein” (priority 2005, published 2006).

Biological target: T1, RNase A (Bos taurus, UniProt P61823)
T1 sequence (P61823 27-150): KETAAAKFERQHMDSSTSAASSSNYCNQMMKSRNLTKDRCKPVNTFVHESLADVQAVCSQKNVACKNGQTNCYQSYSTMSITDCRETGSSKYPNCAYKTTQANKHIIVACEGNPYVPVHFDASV
Details: RNase A 10 μg/ml, 4 mM DTT, 4° C. for 20 minutes

## O[C@H](CS)[C@H](O)CS (racemic) [DTT, dithiothreitol]
  conversion of polyribosomes to monoribosomes by RNase A: reduced the conversion of polyribosomes to monoribosomes
